In US8198320B2, “Hypoglycemic activity of osthole” (Taipei Medical University, priority 2008, dated 2012):

How the values were obtained:
[1] = system: db/db diabetic mice; assay: Effect of intraperitoneal administration of osthole on blood glucose level of db/db diabetic mice; format: in vivo; settings: male db/db mice, 50 mg/kg intraperitoneal once daily, five days a week for two weeks, fasted about 16 hours; before treatment about 360 mg/dL; DMSO control 550 mg/dL
Method: Six male db/db diabetic mice (6 to 11 week-old, purchased from National Laboratory Animal Center (Taipei, Taiwan)) were fasted for over 8 hours and venous blood was collected for the measurement of blood glucose level. The mice were divided into two groups (control group and experimental group) on the basis of their blood glucose level and body weight. The mice in the control group were given the solvent DMSO by means of intraperitoneal administration. The mice in the experimental group were given osthole (50 mg/kg body weight) (purchased from Hangzhou Gosun Biotechnologies Co., Zhejiang, China) by means of intraperitoneal administration. The solvent and osthole were administered once daily, five days a week for two weeks. The mice were then fasted for about 16 hours before being sacrificed and blood samples were collected for the measurement of blood glucose levels. […] After two weeks of treatment, the blood glucose level of the mice in the control group was elevated to 550 mg/dL, whereas the blood glucose level of the mice in the experimental group was maintained at about 360 mg/dL.

[2] = system: db/db diabetic mice; assay: Effect of oral administration of osthole on blood glucose level of db/db diabetic mice; format: in vivo; settings: male db/db mice, 50 mg/kg by gastric tube once daily, five days a week for three weeks, fasted about 16 hours; before treatment about 200 mg/dL; PBS control 400 mg/dL
Method: Six male db/db diabetic mice (5 to 7 week-old, purchased from National Laboratory Animal Center (Taipei, Taiwan)) were fasted for over 8 hours and venous blood was collected for the measurement of blood glucose level. The mice were divided into two groups (control group and experimental group) on the basis of their blood glucose level and body weight. The mice in the control group were fed with PBS by gastric tube. The mice in the experimental group were fed with osthole (50 mg/kg body weight) by gastric tube. The PBS and osthole were administered once daily, five days a week for three weeks. The mice were then fasted for about 16 hours before being sacrificed and blood samples were collected for the measurement of blood glucose level. […] After three weeks of treatment, the blood glucose level of the mice in the control group was elevated to 400 mg/dL; whereas, the blood glucose level of the mice in the experimental group was maintained at about 210 mg/dL.

## COc1ccc2ccc(=O)oc2c1CC=C(C)C [osthole, 7-methoxy-8-(3-methyl-2-butenyl)-2H-1-benzopyran-2-one]
[1]
  blood glucose level after two weeks of treatment: about 360 mg/dL
[2]
  blood glucose level after three weeks of treatment: about 210 mg/dL
